Columns and labels:
SARS-CoV-2 = experiment: Treatment of a human subject suffering from COVID-19; assay type: in vivo; settings: one patient, 3 days, every 6 hours
BCoV strain L9 = experiment: Inactivation of bovine coronavirus in infected U373 cells, photosensitizer plus 810 nm laser irradiation; settings: for residual virus: 100 joule/cm^2, 0.3 watt/cm^2
[1] = system: SARS-CoV-2/Germany strain; experiment: Inactivation of SARS-CoV-2 in infected Vero E6 cells, methylene blue plus broadband LED irradiation; settings: for mean reduction factor (RF): broadband LED (Ledlenser P6), SARS-CoV-2-infected Vero E6 cells; for inactivation of the SARS-CoV-2: corresponds to the mean RF
bovine coronavirus = experiment: Inactivation of bovine coronavirus in infected cells using non-coherent LED light; assay type: cell-based; settings: broadband LED light (non-coherent), 10000 Lux, 2 min of irradiation
Description: In a further set of experiments, the U737 cells were treated under the conditions as shown in the table of FIG. 1 using irradiation with either a monochromatic LED device at 590 nm or a broadband LED device (non-coherent light in each case). Light intensity was 10000 Lux in both cases.

[2] = 0.01% photosensitizer, without radiation, immediately wrapped in aluminium foil, stored and frozen in the dark

## CN(C)c1ccc2nc3ccc(=[N+](C)C)cc-3sc2c1 [methylene blue]
SARS-CoV-2; 3 μg methylene blue nasal/throat spray plus broadband LED ca. 6000 Lux, CT before treatment 19
  PCR SARS-CoV-2 cycle threshold (CT) after treatment: 35
SARS-CoV-2; 3 μg methylene blue spray plus broadband LED, before: dry cough, headache, 38.2° C., medium general condition
  condition of patient after treatment: no cough, no headache, normalized body temperature, normal general condition
BCoV strain L9; 0.0001% (w/v) photosensitizer, 810 nm, 100 joule/cm^2, 0.3 watt/cm^2, 5.46 min, BCoV-infected U373 cells
  mean reduction factor: ≥ 6.00 log10 steps
BCoV strain L9; 0.0001% photosensitizer samples, titration on U373 cells
  cytotoxicity (CT): no cytotoxicity
BCoV strain L9; 0.0001% photosensitizer, 810 nm
  residual virus: only minimal residual virus could still be detected in one sample
BCoV strain L9; 0.0001% photosensitizer, 810 nm, 100 joule/cm^2, corresponds to the mean RF
  virus inactivation: ≥ 99.999%
BCoV strain L9; 0.001% (w/v) photosensitizer, 810 nm, 100 joule/cm^2, 0.3 watt/cm^2, 5.46 min, BCoV-infected U373 cells
  reduction factor (RF): 5.08 log10 steps
BCoV strain L9; 0.01% (w/v) photosensitizer, 810 nm, 100 joule/cm^2, 0.3 watt/cm^2, 5.46 min, BCoV-infected U373 cells
  reduction factor (RF): 4.08 log10 steps
BCoV strain L9; [2]
  reduction factor (RF): 0.38±0.64
  residual virus / effectiveness: substantial amounts of residual virus and no effectiveness
BCoV strain L9; 0.1% (w/v) photosensitizer, 810 nm, 100 joule/cm^2, 0.3 watt/cm^2, 5.46 min, BCoV-infected U373 cells
  reduction factor (RF): 3.08 log10 steps
BCoV strain L9; 0.1% (w/v) to 0.001% (w/v) photosensitizer, 810 nm
  residual virus: no residual virus was found
[1]; 0.0001% photosensitizer
  mean reduction factor (RF): ≥ 4.67
  inactivation of the SARS-CoV-2: 99.99%
[1]; 0.001% or 0.0001% photosensitizer, irradiation 1 minute, 20,000 lx, initial virus titre 6.92 log 10 TCID50/ml, Vero E6 cells
  residual virus: No residual virus was found
[1]; 0.001% photosensitizer
  mean reduction factor (RF): ≥ 4.67
  inactivation of the SARS-CoV-2: 99.99%
Bovine coronavirus
  reduction of residual virus: 3 log10 steps
